As usually defined, the EC50 is the concentration at which the effect is half-maximal. A high value points to a less potent agent.

Series [1] relates to HEp-2 cells. The experiment in a line: Cytotoxicity (MTT) assay. It is filed as cell-based. As to conditions: Table 2; uninfected HEp-2 cells, 4 days incubation, 50% toxicity dose. As for the experimental part: A cytopathetic effect (CPE) protection assay was performed to determine the ability of a compound to protect the cells from viral infection and thus the CPE induced by viral infection. 96-well plates were first seeded with 3×10^3 HEp-2 cells per well in Dulbecco's modified Eagle's medium (DMEM) containing 10% fetal bovine serum (FBS). One day after the cells were seeded, they were preincubated with serial dilutions of compounds prepared in 100 μL assay medium (DMEM mixed with F12 medium at a 1:1 ratio, supplemented with 2% FBS and 1 mM sodium pyruvate) for 1 hour at 37° C. 100 μL of assay medium containing 0.2 multiplicity of infection (MOI) of RSV was then added to each well of cells. In addition to wells containing infected cells incubated with compounds, each plate also contained replicates of two kinds of controls: (1) Virus control contained cells infected with 0.2 MOI of RSV in assay medium, (2) Uninfected cell control contained cells incubated with assay medium only. After 4 days of incubation at 37° C., the viability of cells was assessed using MTT (Thiazolyl blue tetrazolium bromide, Sigma). A stock solution of MTT, at a concentration of 4 mg/mL in phosphate-buffered saline, was added to all wells at 25 μL per well. Plates were further incubated for 4 hours, and each well was then treated with 50 μL of a solution containing 20% sodium dodecyl sulfate (SDS) and 0.02 N HCl. After an overnight incubation, the plates were measured on a BioTek® microtiter plate reader at wavelengths of 570 nm and 650 nm. The MTT detection is based on the fact that viable (uninfected) cells can reduce the tetrazolium salts into colored formazan products, which can then be quantitated by spectrometry. Based on the spectrometric absorbance of each sample, the percent of protection from CPE, which is an indicator of protection from viral infection, can be calculated for each compound and the 50% effective concentrations (EC50) can be calculated using a nonlinear regression curve fitting equation provided by the GraphPad Prism® 4 software.
Cytotoxicity of the compounds was determined in experiments done in parallel with the antiviral assays. To do this, 100 μL of assay medium was added to the wells of HEp-2 cells pretreated with 100 μL serially diluted compounds as described above. After 4 days of incubation, the viability of the cells was determined by the MTT assay in the same way as detailed in the “Antiviral Assay” method. Results were expressed as 50% toxicity dose (TD50) values.
Compounds were tested to determine both their antiviral and toxicity to determine their therapeutic window. Determination of the EC50 and TD50 of these active compounds were repeated one additional time to confirm the window.

Series [2] has as its system RSV (Group A, Long Strain). The experiment in a line: Antiviral (RSV) assay: cytopathetic effect (CPE) protection assay in HEp-2 cells, MTT readout. It is filed as cell-based, human respiratory syncytial virus (RSV). As to conditions: human respiratory syncytial virus, HEp-2, 96 h.
[3] abbreviates: Table 1, 0.2 MOI RSV, 4 days incubation, protection from CPE.
Setting [4] is: Table 2, 0.2 MOI RSV, 4 days, determination repeated to confirm window.

As to `Cc1ccccc1CNc1nc(NCc2ccccn2)nc2c1CCC2` [Example 2, N^4-(2-methylbenzyl)-N^2-(pyridin-2-ylmethyl)-6,7-dihydro-5H-cyclopenta[d]pyrimidine-2,4-diamine], in series [1], the “MTT TD50” value was determined as 7.17 µM. Further, the EC50 in series [2] (setting [3]) and in series [2] (setting [4]) was 2050 nM each time.

For the compound `Cc1cc(NC2CCCCCC2)nc(NCc2ccccn2)n1` [Example 3, N^4-cycloheptyl-6-methyl-N^2-(pyridin-2-ylmethyl)pyrimidine-2,4-diamine], the “MTT TD50” value in series [1] was determined as 8.04 µM. Moreover, the EC50 in series [2] (setting [3]) and in series [2] (setting [4]) was 2790 nM throughout.

For `Cc1cc(NC2CCCCC2)nc(NCc2ccccn2)n1` [Example 4, N^4-cyclohexyl-6-methyl-N^2-(pyridin-2-ylmethyl)pyrimidine-2,4-diamine], the “MTT TD50” value in series [1] came to 39.00 µM. The EC50 in series [2] (setting [3]) and in series [2] (setting [4]) was 23500 nM throughout.

The values above are taken from patent publication US9447051B2, “Diaminopyrimidines and uses thereof” (AbbVie inc., priority 2012, dated 2016).
